This note sets out measurements from article PMC6270409, “Synthesis and Anti-Influenza Virus Activities of a Novel Class of Gastrodin Derivatives” (Molecules, 2013).

Data set [1] concerns influenza virus M2 protein expression. It counts as cell-based, influenza virus A/Wuhan/359/95.
Data set [2] deals with neuraminidase of the two influenza virus A strain. The data set can be described thus: Neuraminidase inhibition assay (MUNANA), two influenza A strains. Conditions: MUNANA substrate. It is filed as biochemical.
The subject of data set [3] is viral hemagglutinin. The data set can be described thus: Hemagglutination inhibition assay. It counts as biochemical, influenza virus. As to conditions: 2 fold serial diluted from 40 μg/mL, chicken erythrocytes.
The test system of data set [4] is influenza A/FM/1/47-MA (H1N1) virus. It counts as in vivo, mice. Conditions: for numbers of surviving animals: survivors/total; for Mean lung score / Lung consolidation: day 6 post-virus exposure; for Lung consolidation: score 0-4; for Mean day to death: b.i.d x 7, mean survival time of mice dying on or before day 14.
Data set [5] has as its system influenza A/FM/1/47(H1N1). The data set can be described thus: microbe, parasite or virus in culture. It is filed as cell-based, influenza A virus.
Data set [6] concerns influenza A/Hanfang/359/95(H3N2). The data set can be described thus: microbe, parasite or virus in culture. It counts as cell-based, influenza A virus.
Data set [7] relates to influenza B (B/Jifang/13/97). The data set can be described thus: Anti-influenza CPE assay in MDCK cells, oseltamivir-null B/Jifang/13/97. It counts as cell-based. Conditions: Influenza B virus, read-out: IC50 B/Jifang/13/97.
The subject of data set [8] is MDCK cells. The data set can be described thus: Cytotoxicity assay in MDCK cells monitored by CPE. As to conditions: 48 h, Table 1.

Read-outs that look alike come from different tables or passages of the source. Marks after values point to notes of the source that are not given here.

For `NC12CC3CC(CC(C3)C1)C2` [Amantadine], the “effect on influenza virus M2 protein expression” value in data set [1] is reported as “significantly inhibited”.

Compound `COC(=O)c1ccc(F)c(O[C@@H]2O[C@H](COC(C)=O)[C@@H](OC(C)=O)[C@H](OC(C)=O)[C@H]2OC(C)=O)c1` [Compound 1a, Methyl 4-fluoro-3-((2S,3R,4S,5R,6R)-3,4,5-triacetoxy-6-(acetoxymethyl)-tetrahydro-2H-pyran-2-yloxy)benzoate] came in with an IC50 on neuraminidase in data set [2] above 40 µg/mL. Besides, the “effect on influenza virus M2 protein expression” value in data set [1] (MDCK cells infected with A/Wuhan/359/95, 300TCID50, 24 hours post infection) is “no effect”. In data set [3], the “inhibitory effect on hemagglutination” value was “did not show an inhibitory effect”. Further, the “numbers of surviving animals” value is listed as 1/10 in [4] (40 mg/kg/day intragastrically) and 6/10 in [4] (80 mg/kg/day intragastrically). The Mean lung score in data set [4] (40 mg/kg/day po) is 2.61 ± 0.85; in data set [4] (80 mg/kg/day po), 1.82 ± 0.82. The Lung consolidation in [4] (40 mg/kg/day po) is 3.56; in data set [4] (80 mg/kg/day po), 2.25. In addition, in data set [4] (80 mg/kg/day po), the “Mean day to death” value is 11.3 days. The IC50 in [5] is 34.5 µM; in data set [5] (Influenza A virus, H1N1, MDCK), 34.4 µM; in data set [6] (Influenza A virus, H3N2, MDCK), 44.4 µM; in [7], 33 µM.

The term melting point denotes the temperature of the solid-liquid transition. The compound `COC(=O)c1ccc(F)cc1O[C@@H]1O[C@H](COC(C)=O)[C@H](OC(C)=O)[C@H](OC(C)=O)[C@H]1OC(C)=O` [Compound 8b, Methyl 4-fluoro-2-((2S,3R,4S,5S,6R)-3,4,5-triacetoxy-6-(acetoxymethyl)-tetrahydro-2H-pyran-2-yloxy)benzoate] returned a melting point of 136 to 138 °C. For the same compound, the TC50 in data set [8] is above 399.66 µM. In [5] (Influenza A virus, H1N1, MDCK), the IC50 was above 400 µM. Also, the IC50 in [6] (Influenza A virus, H3N2, MDCK) was above 400 µM.

`CCOC(=O)C1=C[C@@H](OC(CC)CC)[C@H](NC(C)=O)[C@@H](N)C1` [Oseltamivir, reference compound]: in [1], the “effect on influenza virus M2 protein expression” value is on record as “has inhibitory effect”. For the same compound, the IC50 in data set [5] (Influenza A virus, H1N1, MDCK) was 57.5 µM; in data set [6] (Influenza A virus, H3N2, MDCK) it was 2.08 µM; in data set [7], above 100 µM.

Regarding `NC(=O)c1ncn([C@@H]2O[C@H](CO)[C@@H](O)[C@H]2O)n1` [Ribavirin, reference compound], the “effect on influenza virus M2 protein expression” value in [1] is reported as “significant inhibitory effect”. Also, the “Mean day to death” value in data set [4] (100 mg/kg/day po) was 14.0 * days. The Mean lung score in [4] (100 mg/kg/day po) amounted to 1.31 ± 0.34. The Lung consolidation in data set [4] (100 mg/kg/day po) is recorded as 0.50 *. In [4] (mouse, in vivo), the “% Survivors” value is listed as 100 (10/10) %. The IC50 was 13.5 µM in [5] (Influenza A virus, H1N1, MDCK); 11.9 µM in data set [6] (Influenza A virus, H3N2, MDCK); 11.4 µM in data set [7]. Moreover, in [6] (10 μg/mL, strain not given), the “influenza virus induced cytopathic effect” value is given as “completely inhibits”.

The compound “Methyl 4-((2S,3R,4S,5R,6R)-3,4,5-triacetoxy-6-(acetoxymethyl)-tetrahydro-2H-pyran-2-yloxy)benzoate [Compound 5a]” had a TC50 in data set [8] of 232.53 µM. Further, the IC50 was above 134 µM in [5] and 93.6 µM in data set [6].
